Test results as given in article PMC3531252 (EJNMMI Research, 2012).

How the values were obtained:
[1] = metabolite analysis of plasma by radio-HPLC during PET; assay type: in vivo, cynomolgus monkey
Protocol: During each PET measurement, venous blood samples were taken from a femoral vein for the measurement of [^11 C]
From the obtained blood samples, plasma was obtained after centrifugation at 2,000 × g for 2 to 4 min and was mixed with 1.4 times the volume of acetonitrile. The supernatant acetonitrile-plasma mixture obtained after centrifugation at 2,000 × g for 2 to 4 min was injected into the radio-HPLC system. HPLC analysis was performed on a Waters μ-Bondapak-C18 column (300 × 7.8 mm, 10 μm) by gradient elution using (a) ammonium formate (100 mM) and (b) acetonitrile at 6.0 mL/min.

GlyT1 [2] = test: PET measurements using a cynomolgus monkey; assay type: in vivo
Protocol: PET measurements were performed for 123 min immediately after intravenous (i.v.) injection of radioligand at baseline and after pretreatment with SSR504734. SSR504734 was administered over 15 min, starting 30 min before the radioligand injection. PET measurements were performed on two separate days at a 6-week interval. One baseline PET measurement and one PET measurement after pretreatment with 0.1 mg/kg of SSR504734 were performed on the first day. One baseline PET measurement and two PET measurements after pretreatment with 0.5 and 1.5 mg/kg of SSR504734 were performed on the second day.
Regions of interest (ROI) for the thalamus, cerebellum, caudate, putamen, frontal cortex, temporal cortex, anterior cingulate cortex, pons, white matter, and the whole-brain contour were delineated on PET/MRI co-registered brain images for each monkey. […] PET data were analyzed using several parameters such as percent injected dose (%ID) and percent standard uptake value (%SUV), where

GlyT1 [3] = test: PET measurements using rhesus monkeys, VT by two-tissue compartment model; assay type: in vivo, rhesus monkey; parameters: VT (baseline) WB / VT (baseline) THA / VT (baseline) CB / VT (baseline) CAU / VT (baseline) FC / VT (baseline) ACC / VT (baseline) TC: unit not given here; details: for VT (baseline) ACC / VT (baseline) CAU / VT (baseline) CB / VT (baseline) FC / VT (baseline) Pons / VT (baseline) PUT / VT (baseline) TC / VT (baseline) THA / VT (baseline) WB: 2TC
Protocol: PET measurements were performed using a high-resolution research tomograph (CTI/Siemens Molecular Imaging, Knoxville, TN, USA) with an in-plane resolution less than 1.5 mm FWHM in the center of the FOV [30]. PET data were acquired by list mode. The data were reconstructed with a series of frames (5 × 1 min, 5 × 3 min, 5 × 6 min, and 13 × 10 min) using the Ordinary Poisson-3D-Ordered Subset Expectation Maximization (OP03D-OSEM) algorithm with 10 iterations and 16 subsets including modeling of the points spread function. Image reconstruction was performed on a quad-core PC running a fast reconstruction algorithm.
Anesthesia was induced by intramuscular injection of ketamine hydrochloride (60 mg) and maintained by the administration of a mixture of sevoflurane, O2, and medical air after endotracheal intubation. The head was immobilized with a fixation device. Body temperature was maintained by Bair Hugger Model 505 (Arizant Healthcare, MN, USA) and monitored by an esophageal thermometer. ECG, heart rate, respiratory rate, and oxygen saturation were continuously monitored throughout the experiments. Blood pressure was monitored every 5 min.
(§1) PET measurements were performed for 123 min immediately after i.v. injection of radioligand at baseline and after pretreatment with SSR504734. SSR504734 was administered over 15 min, starting 30 min before the radioligand injection. PET measurements were performed on two separate days with two monkeys. One baseline PET measurement and one PET measurement after pretreatment with 1.5 mg/kg of SSR504734 were performed on one monkey. One baseline PET measurement and one PET measurement after pretreatment with 4.5 mg/kg were performed on the other monkey.
During each PET measurement, arterial blood was collected continuously for 3 min using an automated blood-sampling system at a speed of 3.0 mL/min (Allog AB, Molndal, Sweden). Blood samples (1.0 to 2.5 mL) were drawn at 4, 15, 30, 60, 90, and 120 min after the radioligand injection for blood and plasma radioactivity and metabolite correction.
Regions of interest (ROI) for the thalamus, cerebellum, caudate, putamen, frontal cortex, temporal cortex, anterior cingulate cortex, pons, white matter, and the whole-brain contour were delineated on PET/MRI co-registered brain images for each monkey. Co-registrations and ROI delineations were performed using PMOD 3.0 (Pixel-Wise Modeling Computer Software, PMOD Group, Zurich, Switzerland). PET data were analyzed using several parameters such as percent injected dose (%ID) and percent standard uptake value (%SUV), where
%ID=total radioactivity in the whole brain (MBq)/injected radioactivity (MBq)×100
%SUV=radioactivity (MBq/cc)/injected radioactivity (MBq)×body weight g×100.
In the PET measurements using rhesus monkeys, the total distribution volume (VT) was calculated by a two-tissue compartment model as well.

GlyT1 [4] = test: GlyT1 occupancy and VND by Lassen plot, PET in rhesus monkeys; assay type: in vivo, rhesus monkey; details: for % of VND in VT ACC: anterior cingulate cortex; for % of VND in VT FC: frontal cortex; for % of VND in VT PUT: putamen; for % of VND in VT TC: temporal cortex
Protocol: as §1
GlyT1 occupancy was estimated by applying Lassen plot approach, which can determine nondisplaceable distribution volume (VND) and occupancy using VT values at baseline and after pretreatment. Seven regions (the pons, cerebellum, putamen, frontal cortex, caudate, anterior cingulate cortex, and temporal cortex) were used for the plot.

[5] = baseline + blocking (1.5 mg/kg)
[6] = baseline + blocking (4.5 mg/kg)

## [11CH3]N1CCCCC1[C@@H](NC(=O)c1cccc(C(F)(F)F)c1Cl)c1ccccc1 (stereo partly drawn) [[^11 C]N-methyl-SSR504734, 2-chloro N-[(S)-{(S)-1-[^11 C]methylpiperidin-2-yl} (phenyl)methyl] 3-trifluoromethyl-benzamide]
[1]; radiochromatograms, 4 and 90 min
  metabolites detected in the plasma: more hydrophilic metabolites
[1]; within 90 min after injection
  fraction metabolized in plasma: over 70%
GlyT1 [2]; baseline
  rank order of regional brain uptake: thalamus > pons > cerebellum ≒ putamen > cortical regions > white matter
GlyT1 [2]; baseline, N = 2
  time of whole brain peak: 24 min
GlyT1 [2]; pretreatment 0.1 to 1.5 mg/kg SSR504734, dose-dependent
  radioactivity level in brain after pretreatment with SSR504734: increased in all regions
GlyT1 [3]; baseline
  rank order of regional brain uptake: thalamus > pons > putamen > frontal cortex≒temporal cortex > cerebellum> > white matter
GlyT1 [3]; pretreatment 1.5 and 4.5 mg/kg SSR504734
  uptake in the brain regions after pretreatment with SSR504734: increase
GlyT1 [3]; rhesus monkey 1, anterior cingulate cortex
  VT (baseline) ACC: 28.6
GlyT1 [3]; rhesus monkey 1, anterior cingulate cortex, after SSR504734 1.5 mg/kg
  VT (Blocking (1.5 mg/kg)) ACC: 22.5
GlyT1 [3]; rhesus monkey 1, anterior cingulate cortex, baseline to blocking with SSR504734 1.5 mg/kg
  % decrease of VT ACC: 21.3%
GlyT1 [3]; rhesus monkey 1, caudate
  VT (baseline) CAU: 26.2
GlyT1 [3]; rhesus monkey 1, caudate, after SSR504734 1.5 mg/kg
  VT (Blocking (1.5 mg/kg)) CAU: 22.0
GlyT1 [3]; rhesus monkey 1, caudate, baseline to blocking with SSR504734 1.5 mg/kg
  % decrease of VT CAU: 16.0%
GlyT1 [3]; rhesus monkey 1, cerebellum
  VT (baseline) CB: 23.7
GlyT1 [3]; rhesus monkey 1, cerebellum, after SSR504734 1.5 mg/kg
  VT (Blocking (1.5 mg/kg)) CB: 20.4
GlyT1 [3]; rhesus monkey 1, cerebellum, baseline to blocking with SSR504734 1.5 mg/kg
  % decrease of VT CB: 13.9%
GlyT1 [3]; rhesus monkey 1, frontal cortex
  VT (baseline) FC: 25.2
GlyT1 [3]; rhesus monkey 1, frontal cortex, after SSR504734 1.5 mg/kg
  VT (Blocking (1.5 mg/kg)) FC: 20.6
GlyT1 [3]; rhesus monkey 1, frontal cortex, baseline to blocking with SSR504734 1.5 mg/kg
  % decrease of VT FC: 18.3%
GlyT1 [3]; rhesus monkey 1, pons
  VT (baseline) Pons: 35.2
GlyT1 [3]; rhesus monkey 1, pons, after SSR504734 1.5 mg/kg
  VT (Blocking (1.5 mg/kg)) Pons: 26.8
GlyT1 [3]; rhesus monkey 1, pons, baseline to blocking with SSR504734 1.5 mg/kg
  % decrease of VT Pons: 23.9%
GlyT1 [3]; rhesus monkey 1, putamen
  VT (baseline) PUT: 26.7
GlyT1 [3]; rhesus monkey 1, putamen, after SSR504734 1.5 mg/kg
  VT (Blocking (1.5 mg/kg)) PUT: 22.8
GlyT1 [3]; rhesus monkey 1, putamen, baseline to blocking with SSR504734 1.5 mg/kg
  % decrease of VT PUT: 14.6%
GlyT1 [3]; rhesus monkey 1, temporal cortex
  VT (baseline) TC: 25.6
GlyT1 [3]; rhesus monkey 1, temporal cortex, after SSR504734 1.5 mg/kg
  VT (Blocking (1.5 mg/kg)) TC: 21.8
GlyT1 [3]; rhesus monkey 1, temporal cortex, baseline to blocking with SSR504734 1.5 mg/kg
  % decrease of VT TC: 14.8%
GlyT1 [3]; rhesus monkey 1, thalamus
  VT (baseline) THA: 31.0
GlyT1 [3]; rhesus monkey 1, thalamus, after SSR504734 1.5 mg/kg
  VT (Blocking (1.5 mg/kg)) THA: 29.6
GlyT1 [3]; rhesus monkey 1, thalamus, baseline to blocking with SSR504734 1.5 mg/kg
  % decrease of VT THA: 4.5%
GlyT1 [3]; rhesus monkey 1, whole brain
  VT (baseline) WB: 23.1
GlyT1 [3]; rhesus monkey 1, whole brain, after SSR504734 1.5 mg/kg
  VT (Blocking (1.5 mg/kg)) WB: 18.6
GlyT1 [3]; rhesus monkey 2, anterior cingulate cortex
  VT (baseline) ACC: 15.5
GlyT1 [3]; rhesus monkey 2, anterior cingulate cortex, after SSR504734 4.5 mg/kg
  VT (Blocking (4.5 mg/kg)) ACC: 9.0
GlyT1 [3]; rhesus monkey 2, anterior cingulate cortex, baseline to blocking with SSR504734 4.5 mg/kg
  % decrease of VT ACC: 41.9%
GlyT1 [3]; rhesus monkey 2, caudate
  VT (baseline) CAU: 17.0
GlyT1 [3]; rhesus monkey 2, caudate, after SSR504734 4.5 mg/kg
  VT (Blocking (4.5 mg/kg)) CAU: 9.2
GlyT1 [3]; rhesus monkey 2, caudate, baseline to blocking with SSR504734 4.5 mg/kg
  % decrease of VT CAU: 45.9%
GlyT1 [3]; rhesus monkey 2, cerebellum
  VT (baseline) CB: 12.8
GlyT1 [3]; rhesus monkey 2, cerebellum, after SSR504734 4.5 mg/kg
  VT (Blocking (4.5 mg/kg)) CB: 9.0
GlyT1 [3]; rhesus monkey 2, cerebellum, baseline to blocking with SSR504734 4.5 mg/kg
  % decrease of VT CB: 29.7%
GlyT1 [3]; rhesus monkey 2, frontal cortex
  VT (baseline) FC: 14.3
GlyT1 [3]; rhesus monkey 2, frontal cortex, after SSR504734 4.5 mg/kg
  VT (Blocking (4.5 mg/kg)) FC: 8.6
GlyT1 [3]; rhesus monkey 2, frontal cortex, baseline to blocking with SSR504734 4.5 mg/kg
  % decrease of VT FC: 39.9%
GlyT1 [3]; rhesus monkey 2, pons
  VT (baseline) Pons: 16.9
GlyT1 [3]; rhesus monkey 2, pons, after SSR504734 4.5 mg/kg
  VT (Blocking (4.5 mg/kg)) Pons: 10.9
GlyT1 [3]; rhesus monkey 2, pons, baseline to blocking with SSR504734 4.5 mg/kg
  % decrease of VT Pons: 35.5%
GlyT1 [3]; rhesus monkey 2, putamen
  VT (baseline) PUT: 15.8
GlyT1 [3]; rhesus monkey 2, putamen, after SSR504734 4.5 mg/kg
  VT (Blocking (4.5 mg/kg)) PUT: 10.1
GlyT1 [3]; rhesus monkey 2, putamen, baseline to blocking with SSR504734 4.5 mg/kg
  % decrease of VT PUT: 36.1%
GlyT1 [3]; rhesus monkey 2, temporal cortex
  VT (baseline) TC: 12.3
GlyT1 [3]; rhesus monkey 2, temporal cortex, after SSR504734 4.5 mg/kg
  VT (Blocking (4.5 mg/kg)) TC: 8.9
GlyT1 [3]; rhesus monkey 2, temporal cortex, baseline to blocking with SSR504734 4.5 mg/kg
  % decrease of VT TC: 27.6%
GlyT1 [3]; rhesus monkey 2, thalamus
  VT (baseline) THA: 15.7
GlyT1 [3]; rhesus monkey 2, thalamus, after SSR504734 4.5 mg/kg
  VT (Blocking (4.5 mg/kg)) THA: 11.9
GlyT1 [3]; rhesus monkey 2, thalamus, baseline to blocking with SSR504734 4.5 mg/kg
  % decrease of VT THA: 24.2%
GlyT1 [3]; rhesus monkey 2, whole brain
  VT (baseline) WB: 12.6
GlyT1 [3]; rhesus monkey 2, whole brain, after SSR504734 4.5 mg/kg
  VT (Blocking (4.5 mg/kg)) WB: 8.5
GlyT1 [3]; rhesus monkey 2, whole brain, baseline to blocking with SSR504734 4.5 mg/kg
  % decrease of VT WB: 32.5%
GlyT1 [4]; baseline + blocking 1.5 mg/kg SSR504734, rhesus monkey 1, one value for all regions
  VND: 16.5
GlyT1 [4]; baseline + blocking 4.5 mg/kg SSR504734, rhesus monkey 2, one value for all regions
  VND: 7.5
GlyT1 [4]; [5]
  % of VND in VT ACC: 59%
  % of VND in VT FC: 52%
  % of VND in VT PUT: 55%
  % of VND in VT TC: 54%
GlyT1 [4]; baseline + blocking (1.5 mg/kg), caudate
  % of VND in VT CAU: 55%
GlyT1 [4]; baseline + blocking (1.5 mg/kg), cerebellum
  % of VND in VT CB: 50%
GlyT1 [4]; baseline + blocking (1.5 mg/kg), pons
  % of VND in VT Pons: 66%
GlyT1 [4]; [6]
  % of VND in VT ACC: 52%
  % of VND in VT FC: 48%
  % of VND in VT PUT: 53%
  % of VND in VT TC: 39%
